Laboratory results taken from patent US9616033B2, “Selective metabolic approach to increasing oral bioavailability of phenylephrine and other phenolic bioactivities” (VIRGINIA COMMONWEALTH UNIVERSITY, priority 2011, dated 2017).
Entries after “also recorded” stand apart in the source; their conditions may differ.

Key:
LS180 cells [1] = assay: Inhibition of resveratrol metabolism (disappearance) in LS180 cells; format: cell-based, human; details: for activity at 100 µM: Homo sapiens, read-out: Extent of RES Disappearance (as % of control); for inhibition of resveratrol metabolism (in words): 4 hours
LS180 cells [2] = assay: Inhibition of 2-methoxyestradiol metabolism (disappearance) in LS180 cells; format: cell-based, human; details: for activity at 100 µM: Homo sapiens, LS180, 1 h
[3] = system: human LS180 intestinal cells; assay: Inhibition of phenylephrine (PE) metabolism (PE disappearance) in LS180 cells; format: cell-based; details: for activity at 100 µM: Homo sapiens; for effect on PE disappearance / PE metabolism (in words): inhibitor 100 μM
Experimental: The inhibitors which can be used in the practice of the invention are wide ranging. […] The LS180 model provides an inexpensive method to imitate the human intestine, with regards to PE metabolism. […] For the LS180 experiments, LS180 cells are seeded at the concentration of 1.9×10^5 cells/ml in 12-well plate. […] After incubation, medium is removed and stored at −80° C. until analysis. The metabolic reactions are quenched by placing 12-well plate on ice and quickly rinsing each well. The cell extraction of metabolites is carried out with 1 ml 2% acetic acid solution in methanol. Cells are scraped and collected in centrifuge tubes. The suspension is mixed for 2-3 min and centrifuged at 18,000 rcf for 5 min. Supernatants (800 μl) are collected. After scraping, each well is washed twice as above. The washing solution is collected with the supernatant and dried under reduced pressure. The residue is re-suspended in 35 μl water and analyzed by HPLC. […] The data are processed with one-way ANOVA followed by Dunnett's post test; * indicates p<0.05.
Phenolic compounds were selected from FDA's “GRAS” list, approved food additives, or dietary supplements. LS180 cells were used as a model to test the effect of these phenolic compounds on the pre-systemic sulfation of PE. The cells were incubated in 0.5 ml medium with PE (50 μM)±inhibitor (100 μM) overnight. Extracellular buffer was collected and cells were extracted with methanol. PE was determined by reversed-phase HPLC with fluorescence detection. The formation of PE-sulfate was analyzed by LC-MS/MS. Results (n=3 per group) were analyzed by one-way ANOVA with Dunnett's post-test (p<0.05; Prism 5).

[4] = system: human LS180 intestinal cells; assay: Inhibition of PE sulfate formation in LS180 cells; format: cell-based; details: PE 50 μM ± inhibitor 100 μM, overnight, LC-MS/MS, read-out: PE-sulfate formation inhibited to (control=100%)
Excerpt: The inhibitors which can be used in the practice of the invention are wide ranging. Tables 1 and 2 show results with a number of different compounds which can function as inhibitors of SULT, MAO, CYP, COMT or UGT enzymes, or which otherwise may be used to increase the bioavailability of the exemplary bioactive phenylephrine. […] In Tables 1 and 2, human LS180 intestinal cells were used for screening the inhibition of PE metabolism. For the experiment which produced the results in Table 1, the concentration of PE was […]; the concentration of vitamin C (where present) was 1 mM; the total concentration of other inhibitors was 100 μM. Cells were incubated at 37° C. for 14 to 17.5 hours, as indicated. […] The residue is re-suspended in 35 μl water and analyzed by HPLC. All the samples are analyzed for PE by HPLC with a phenyl column (150×3.2 mm, 5 μm, 55° C.) at the flow rate of […] (20% methanol and 80% (aqueous 1% acetic acid)) and detected by fluorescence (excitation 270 nm, emission 305 nm). […]
Phenolic compounds were selected from FDA's “GRAS” list, approved food additives, or dietary supplements. […] PE was determined by reversed-phase HPLC with fluorescence detection. The formation of PE-sulfate was analyzed by LC-MS/MS. Results (n=3 per group) were analyzed by one-way ANOVA with Dunnett's post-test (p<0.05; Prism 5).

[5] = Fenaroli, 2010; cited from earlier work
[6] = cited from earlier work
[7] = Biopharmaceutical Classification System (BCS) classification; details: high permeability, high aqueous solubility
Excerpt: Interpreting the data published by Hengstmann, the mass balance of total radioactivity excreted into urine following an oral dose was 92% of what was recovered following an intravenous dose, so that phenylephrine would therefore be considered a “high permeability” compound. (Hengstmann and Goronzy, 1982; Amidon et al., 1995) Combining this with its high aqueous solubility, phenylephrine would be classified as a Biopharmaceutical Classification System (BCS) class 1 compound. […] (Amidon et al., 1995; Wu and Benet, 2005) Therefore, to improve the oral bioavailability of PE, a metabolism-targeted approach would be most useful.

[8] = resveratrol 25 μM, inhibitor 100 μM, LS180 cells, incubation 4 hr
[9] = 2-ME 10 μM, inhibitor 100 μM, incubation time 1 hr (table), read-out: Extent of 2-ME Disappearance (as % of control)
[10] = PE 50 μM, inhibitors total 100 μM (ascorbic acid 1 mM), LS180 cells, incubation 14 hr, read-out: Extent of PE Disappearance (as % of control)
[11] = PE 50 μM, LS180 cells, overnight
[12] = resveratrol 25 μM, inhibitor 100 μM, LS180 cells
[13] = 2-ME 10 μM, inhibitor 100 μM, incubation time 1 hr (table)
[14] = PE 50 μM ± inhibitor 100 μM, LS180 cells, overnight, n=3, control=503±127 pmol/hr, read-out: extent of disappearance of PE (mean±SD, as % of control)
[15] = PE 50 μM, inhibitors total 100 μM, LS180 cells, incubation 17.5 hr, read-out: Extent of PE Disappearance (as % of control)
[16] = PE 50 μM, inhibitors total 100 μM (ascorbic acid 1 mM), LS180 cells, incubation 17 hr, read-out: Extent of PE Disappearance (as % of control)
[17] = PE 50 μM, inhibitors total 100 μM, LS180 cells, incubation 19 hr, read-out: Extent of PE Disappearance (as % of control)

In the case of `COc1cc(C(=O)O)ccc1O` [vanillic acid], the activity at 100 µM (LS180 cells [1]; [8]) is reported as 103% and the activity at 100 µM (LS180 cells [2]; [9]) is reported as 99.1%.
For `CCCOC(=O)c1cc(O)c(O)c(O)c1` [propyl gallate], the activity at 100 µM [3, 10] was 114%, the “effect on PE disappearance / PE metabolism (in words)” value [3, 11] was “no significant effect on PE disappearance” and the activity at 100 µM (LS180 cells [1]; [8]) was 51.2%. The “inhibition of resveratrol metabolism (in words)” value (LS180 cells [1]; [12]) was “significant inhibition”, the “inhibition of 2ME metabolism (in words)” value (LS180 cells [2]; 2-ME 10 μM, inhibitor 100 μM) was “Significant inhibition” and the “Extent of 2-ME Disappearance (as % of control)” value (shortened to “Extent … (as % of control)”) (LS180 cells [2]; [13]) was 50.4%. It also gave an activity at 100 µM (LS180 cells [2]; [9]) of 42.8%.
For `COc1ccccc1O` [guaiacol], the activity at 100 µM [3, 14] was 51 ± 14%, the activity at 100 µM ([3]; PE 50 μM, inhibitors total 100 μM, LS180 cells, incubation 18.5 hr, read-out: Extent of PE Disappearance (as % of control)) was 51.3% and the activity at 100 µM [4] was 33 ± 7%.
`C[C@@H]1O[C@@H](O[C@H]2[C@H](Oc3cc(O)c4c(c3)O[C@H](c3ccc(O)cc3)CC4=O)O[C@H](CO)[C@@H](O)[C@@H]2O)[C@H](O)[C@H](O)[C@H]1O` [naringin] gave an activity at 100 µM [3, 15] of 75.7%.
In the case of `C=CCc1ccc(O)c(OC)c1` [eugenol], the activity at 100 µM ([3]; LS180, 17.5 h, read-out: Extent of PE Disappearance (as % of control)) is reported as 133%, the “effect on PE disappearance / PE metabolism (in words)” value [3, 11] is reported as “failed to inhibit PE metabolism alone; also recorded: no significant effect on PE disappearance” and the activity at 100 µM (LS180 cells [1]; LS180, 4 h) is reported as 38.3%. For the same compound, the “inhibition of resveratrol metabolism (in words)” value (LS180 cells [1]; [12]) was “significant inhibition”, the “inhibition of 2ME metabolism (in words)” value (LS180 cells [2]; 2-ME 10 μM, inhibitor 100 μM) was “Significant inhibition” and the “Extent … (as % of control)” value (LS180 cells [2]; [13]) was 33.9%. The activity at 100 µM (LS180 cells [2]; read-out: Extent of 2-ME Disappearance (as % of control), 2-ME 10 μM, inhibitor 100 μM, incubation time 1 hr (table)) was 21.2%.
For `COc1cc(C=O)ccc1O` [vanillin], the activity at 100 µM [3, 10] was 90.2%, the “effect on PE disappearance / PE metabolism (in words)” value [3, 11] was “failed to inhibit PE metabolism alone; also recorded: no significant effect on PE disappearance” and the activity at 100 µM (LS180 cells [1]; [8]) was 44.8%. For the same compound, the “inhibition of resveratrol metabolism (in words)” value (LS180 cells [1]; [12]) was “significant inhibition”, the “inhibition of 2ME metabolism (in words)” value (LS180 cells [2]; 2-ME 10 μM, inhibitor 100 μM) was “Significant inhibition” and the “Extent … (as % of control)” value (LS180 cells [2]; [13]) was 39.4%. The activity at 100 µM (LS180 cells [2]; [9]) was 51.2% and the acceptable daily intake [5] was 10 mg/kg/day.
In the case of `O=C(/C=C/C=C/c1ccc2c(c1)OCO2)N1CCCCC1` [piperine], the activity at 100 µM (LS180 cells [1]; [8]) is reported as 26.4%.
With `O=C(O)/C=C/c1ccc(O)c(O)c1` [caffeic acid] the activity at 100 µM (LS180 cells [1]; [8]) was 91.1% and the activity at 100 µM (LS180 cells [2]; [9]) was 93.3%.
With `CCOc1cc(C=O)ccc1O` [ethylvanillin] the activity at 100 µM [3, 16] was 76.5%, the activity at 100 µM (LS180 cells [1]; [8]) was 8.1% and the “inhibition of resveratrol metabolism (in words)” value (LS180 cells [1]; [12]) was “greatest extent of inhibition”.
In the case of `O=c1c(O)c(-c2ccc(O)c(O)c2)oc2cc(O)cc(O)c12` [quercetin], the activity at 100 µM [3, 15] is reported as 48.7%.
`COc1cc(/C=C/C(=O)CC(=O)/C=C/c2ccc(O)c(OC)c2)ccc1O` [curcumin] showed an activity at 100 µM [3, 14] of 24 ± 24% and an activity at 100 µM [3, 16] of 24.5%.
For `O=C(O)c1cc(O)c(O)c(O)c1` [gallic acid], the activity at 100 µM (LS180 cells [2]; [9]) was 102%.
With `O=C(O)C=Cc1ccccc1` [cinnamic acid] the activity at 100 µM (LS180 cells [1]; [8]) was 16.3% and the “inhibition of resveratrol metabolism (in words)” value (LS180 cells [1]; [12]) was “significant inhibition”.
In the case of `COc1cc(CCC(C)=O)ccc1O` [zingerone], the activity at 100 µM [3, 14] is reported as 52 ± 25%, the activity at 100 µM [3, 16] is reported as 52.4% and the activity at 100 µM (LS180 cells [1]; [8]) is reported as 83.7%.
For `CNC[C@H](O)c1cccc(O)c1` [phenylephrine], the “total radioactivity excreted into urine following an oral dose, relative to intravenous dose” value ([6]; mass balance, oral vs intravenous, Hengstmann data) is listed as 92%, the oral bioavailability ([6]; oral) is listed as under 38% and the “Biopharmaceutical Classification System (BCS) class” value [7] is listed as “class 1”.
Work on `CC=Cc1ccc(O)c(OC)c1` [isoeugenol] yielded an activity at 100 µM [3, 14] of 74 ± 8% and an activity at 100 µM [3, 17] of 73.9%.
For `CCCOC(=O)c1ccc(O)cc1` [propylparaben], the activity at 100 µM [3, 10] was 53.8%, the activity at 100 µM (LS180 cells [1]; [8]) was 57.8% and the “inhibition of resveratrol metabolism (in words)” value (LS180 cells [1]; [12]) was “significant inhibition”. For the same compound, the “inhibition of 2ME metabolism (in words)” value (LS180 cells [2]; 2-ME 10 μM, inhibitor 100 μM) was “Significant inhibition”, the “Extent … (as % of control)” value (LS180 cells [2]; [13]) was 57.7% and the activity at 100 µM (LS180 cells [2]; [9]) was 51.7%.
With `O=CC=Cc1ccccc1` [cinnamaldehyde] the “Extent … (as % of control)” value (LS180 cells [2]; [13]) was 93.9% and the activity at 100 µM (LS180 cells [2]; [9]) was 87.6%.
Work on `COc1cc(/C=C/C(=O)O)ccc1O` [ferulic acid] yielded an activity at 100 µM (LS180 cells [1]; [8]) of 100% and an activity at 100 µM (LS180 cells [2]; [9]) of 102%.
For `COc1cc(/C=C/c2ccc(O)cc2)cc(OC)c1` [pterostilbene], the activity at 100 µM [3, 14] was 71 ± 7% and the activity at 100 µM [3, 17] was 70.6%.
For `COc1cc(/C=C/C(=O)O)cc(OC)c1O` [sinapic acid], the activity at 100 µM (LS180 cells [1]; [8]) was 86.1% and the activity at 100 µM (LS180 cells [2]; [9]) was 88.1%.
Work on `Oc1ccc(C=Cc2cc(O)cc(O)c2)cc1` [resveratrol] yielded an activity at 100 µM [3, 14] of 14 ± 48% and an activity at 100 µM [3, 15] of 14.2%.
In the case of `COC(=O)c1ccc(O)cc1` [methylparaben], the activity at 100 µM [3, 16] is reported as 75.9%, the activity at 100 µM (LS180 cells [1]; [8]) is reported as 0.4% and the “inhibition of resveratrol metabolism (in words)” value (LS180 cells [1]; [12]) is reported as “greatest extent of inhibition”.
